Assay results published in PubChem BioAssay (NCI).
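Exposure lasted 48 hours, with cells grown in 96-well plates and compounds tested at five concentrations. Abbreviation: GI50, concentration required for 50% inhibition of growth. The concentration for full growth arrest is given as TGI.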

Legend:
Test in all cases: NCI anticancer screen, dose series, 48 h
TK-10 renal = test system: TK-10 renal
HCT-116 colon = test system: HCT-116 colon
SF-539 CNS = test system: SF-539 CNS
K-562 leukemia = test system: K-562 leukemia
OVCAR-5 ovarian = test system: OVCAR-5 ovarian
SK-MEL-2 melanoma = test system: SK-MEL-2 melanoma
NCI-H522 lung = test system: NCI-H522 lung
SK-MEL-5 melanoma = test system: SK-MEL-5 melanoma
SK-OV-3 ovarian = test system: SK-OV-3 ovarian
U251 CNS = test system: U251 CNS
DU-145 prostate = test system: DU-145 prostate
NCI/ADR-RES ovarian = test system: NCI/ADR-RES ovarian
UACC-62 melanoma = test system: UACC-62 melanoma
NCI-H460 lung = test system: NCI-H460 lung
HCT-15 colon = test system: HCT-15 colon
NCI-H226 lung = test system: NCI-H226 lung
OVCAR-4 ovarian = test system: OVCAR-4 ovarian
RXF 393 renal = test system: RXF 393 renal
OVCAR-3 ovarian = test system: OVCAR-3 ovarian
MCF7 breast = test system: MCF7 breast
UO-31 renal = test system: UO-31 renal
SF-268 CNS = test system: SF-268 CNS
HCC-2998 colon = test system: HCC-2998 colon
MALME-3M melanoma = test system: MALME-3M melanoma
HT29 colon = test system: HT29 colon
SK-MEL-28 melanoma = test system: SK-MEL-28 melanoma
SR leukemia = test system: SR leukemia
T-47D breast = test system: T-47D breast
SNB-75 CNS = test system: SNB-75 CNS
HL-60(TB) leukemia = test system: HL-60(TB) leukemia
ACHN renal = test system: ACHN renal
SNB-19 CNS = test system: SNB-19 CNS
MDA-MB-231 breast = test system: MDA-MB-231 breast
A549 NSCLC = test system: A549 NSCLC
HOP-92 NSCLC = test system: HOP-92 NSCLC
M14 melanoma = test system: M14 melanoma
PC-3 prostate = test system: PC-3 prostate
EKVX NSCLC = test system: EKVX NSCLC
A498 renal = test system: A498 renal
HOP-62 NSCLC = test system: HOP-62 NSCLC
MDA-MB-435 = test system: MDA-MB-435
HS 578T breast = test system: HS 578T breast
BT-549 breast = test system: BT-549 breast
SF-295 CNS = test system: SF-295 CNS
MOLT-4 leukemia = test system: MOLT-4 leukemia
KM12 colon = test system: KM12 colon
LOX IMVI melanoma = test system: LOX IMVI melanoma
786-0 renal = test system: 786-0 renal
OVCAR-8 ovarian = test system: OVCAR-8 ovarian
COLO 205 colon = test system: COLO 205 colon
SW-620 colon = test system: SW-620 colon
CAKI-1 renal = test system: CAKI-1 renal
NCI-H23 lung = test system: NCI-H23 lung
UACC-257 melanoma = test system: UACC-257 melanoma
SN12C renal = test system: SN12C renal
CCRF-CEM leukemia = test system: CCRF-CEM leukemia
RPMI-8226 leukemia = test system: RPMI-8226 leukemia
IGROV1 ovarian = test system: IGROV1 ovarian

SMILES: CC(=O)OCC(=O)[C@@]1(O)[C@H](C)C[C@H]2[C@@H]3C=C(C)C4=Cc5c(cnn5-c5ccc(F)cc5)C[C@]4(C)[C@H]3[C@@H](O)C[C@@]21C
- GI50 (TK-10 renal): 1910 nM
- TGI (TK-10 renal): 6030 nM
- GI50 (HCT-116 colon): 1660 nM
- TGI (HCT-116 colon): 3500 nM
- GI50 (SF-539 CNS): 473 nM
- TGI (SF-539 CNS): 2350 nM
- GI50 (K-562 leukemia): 1150 nM
- TGI (K-562 leukemia): > 23200 nM
- GI50 (OVCAR-5 ovarian): 1410 nM
- TGI (OVCAR-5 ovarian): 4570 nM
- GI50 (SK-MEL-2 melanoma): 2140 nM
- TGI (SK-MEL-2 melanoma): 6360 nM
- GI50 (NCI-H522 lung): 1840 nM
- TGI (NCI-H522 lung): 3820 nM
- GI50 (SK-MEL-5 melanoma): 1260 nM
- TGI (SK-MEL-5 melanoma): 2530 nM
- GI50 (SK-OV-3 ovarian): 1290 nM
- TGI (SK-OV-3 ovarian): 4570 nM
- GI50 (U251 CNS): 1250 nM
- TGI (U251 CNS): 3270 nM
- GI50 (DU-145 prostate): 2030 nM
- TGI (DU-145 prostate): 5170 nM
- GI50 (NCI/ADR-RES ovarian): 1900 nM
- TGI (NCI/ADR-RES ovarian): 6820 nM
- GI50 (UACC-62 melanoma): 1730 nM
- TGI (UACC-62 melanoma): 3780 nM
- GI50 (NCI-H460 lung): 1470 nM
- TGI (NCI-H460 lung): 3160 nM
- GI50 (HCT-15 colon): 1450 nM
- TGI (HCT-15 colon): 3630 nM
- GI50 (NCI-H226 lung): 2230 nM
- TGI (NCI-H226 lung): 9080 nM
- GI50 (OVCAR-4 ovarian): 2120 nM
- TGI (OVCAR-4 ovarian): 11500 nM
- GI50 (RXF 393 renal): 709 nM
- TGI (RXF 393 renal): 2350 nM
- GI50 (OVCAR-3 ovarian): 1780 nM
- TGI (OVCAR-3 ovarian): 3840 nM
- GI50 (MCF7 breast): 1890 nM
- TGI (MCF7 breast): 6240 nM
- GI50 (UO-31 renal): 4310 nM
- TGI (UO-31 renal): 15600 nM
- GI50 (SF-268 CNS): 2480 nM
- TGI (SF-268 CNS): 8390 nM
- GI50 (HCC-2998 colon): 1880 nM
- TGI (HCC-2998 colon): 3770 nM
- GI50 (MALME-3M melanoma): 2360 nM
- TGI (MALME-3M melanoma): 8980 nM
- GI50 (HT29 colon): 1320 nM
- TGI (HT29 colon): 3070 nM
- GI50 (SK-MEL-28 melanoma): 1330 nM
- TGI (SK-MEL-28 melanoma): 2810 nM
- GI50 (SR leukemia): 2350 nM
- TGI (SR leukemia): 7930 nM
- GI50 (T-47D breast): 2750 nM
- TGI (T-47D breast): 8720 nM
- GI50 (SNB-75 CNS): 1190 nM
- TGI (SNB-75 CNS): 4140 nM
- GI50 (HL-60(TB) leukemia): 4100 nM
- TGI (HL-60(TB) leukemia): 9020 nM
- GI50 (ACHN renal): 2500 nM
- TGI (ACHN renal): 9970 nM
- GI50 (SNB-19 CNS): 2030 nM
- TGI (SNB-19 CNS): 6270 nM
- GI50 (MDA-MB-231 breast): 2560 nM
- TGI (MDA-MB-231 breast): 6430 nM
- GI50 (A549 NSCLC): 1450 nM
- TGI (A549 NSCLC): 9960 nM
- TGI (HOP-92 NSCLC): 5870 nM
- GI50 (M14 melanoma): 1710 nM
- TGI (M14 melanoma): 3500 nM
- GI50 (PC-3 prostate): 1800 nM
- TGI (PC-3 prostate): 5060 nM
- GI50 (EKVX NSCLC): 1880 nM
- TGI (EKVX NSCLC): 10400 nM
- GI50 (A498 renal): 1480 nM
- TGI (A498 renal): 3150 nM
- GI50 (HOP-62 NSCLC): 1280 nM
- TGI (HOP-62 NSCLC): 3070 nM
- GI50 (MDA-MB-435): 2350 nM
- TGI (MDA-MB-435): 7020 nM
- GI50 (HS 578T breast): 1330 nM
- TGI (HS 578T breast): 4050 nM
- GI50 (BT-549 breast): 1770 nM
- TGI (BT-549 breast): 4780 nM
- GI50 (SF-295 CNS): 982 nM
- TGI (SF-295 CNS): 5130 nM
- GI50 (MOLT-4 leukemia): 1940 nM
- TGI (MOLT-4 leukemia): 6760 nM
- GI50 (KM12 colon): 1440 nM
- TGI (KM12 colon): 2940 nM
- GI50 (LOX IMVI melanoma): 1660 nM
- TGI (LOX IMVI melanoma): 3800 nM
- GI50 (786-0 renal): 1060 nM
- TGI (786-0 renal): 2550 nM
- GI50 (OVCAR-8 ovarian): 2580 nM
- TGI (OVCAR-8 ovarian): 11300 nM
- GI50 (COLO 205 colon): 1740 nM
- TGI (COLO 205 colon): 3340 nM
- GI50 (SW-620 colon): 1800 nM
- TGI (SW-620 colon): 3410 nM
- GI50 (CAKI-1 renal): 2570 nM
- TGI (CAKI-1 renal): 10000 nM
- GI50 (NCI-H23 lung): 2080 nM
- TGI (NCI-H23 lung): 5800 nM
- GI50 (UACC-257 melanoma): 2760 nM
- TGI (UACC-257 melanoma): 8540 nM
- GI50 (SN12C renal): 1890 nM
- TGI (SN12C renal): 7080 nM
- GI50 (CCRF-CEM leukemia): < 15.8 nM
- GI50 (RPMI-8226 leukemia): 161 nM
- TGI (RPMI-8226 leukemia): 1140 nM
- GI50 (IGROV1 ovarian): 2850 nM
- TGI (IGROV1 ovarian): 12800 nM
